Laboratory results: publication PMC5699221 (Biochemistry, 2017)

Assays:
[1] = molecular target: PaODH (Pseudomonas aeruginosa, UniProt Q9HUX5); assay: NADPH fluorescence, titrated with enzyme; format: binding
[2] = molecular target: PaNAS (Pseudomonas aeruginosa, UniProt Q9HUX4); assay: biochemical
[3] = system: N[C@H](Cc1c[nH]cn1)C(=O)O; assay: purified protein; conditions: co-substrate SAM, coupled with SaODH, NADPH, pyruvate, 50 mM Tris pH 8

Chain of PaNAS (Q9HUX4 whole entry): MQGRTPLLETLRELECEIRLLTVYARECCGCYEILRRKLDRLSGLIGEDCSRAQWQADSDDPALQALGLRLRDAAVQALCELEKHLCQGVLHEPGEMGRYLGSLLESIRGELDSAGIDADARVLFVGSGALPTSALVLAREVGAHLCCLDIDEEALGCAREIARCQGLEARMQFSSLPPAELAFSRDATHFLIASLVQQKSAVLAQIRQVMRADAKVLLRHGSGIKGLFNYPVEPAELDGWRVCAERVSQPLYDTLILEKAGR
Chain of PaODH (Q9HUX5 whole entry): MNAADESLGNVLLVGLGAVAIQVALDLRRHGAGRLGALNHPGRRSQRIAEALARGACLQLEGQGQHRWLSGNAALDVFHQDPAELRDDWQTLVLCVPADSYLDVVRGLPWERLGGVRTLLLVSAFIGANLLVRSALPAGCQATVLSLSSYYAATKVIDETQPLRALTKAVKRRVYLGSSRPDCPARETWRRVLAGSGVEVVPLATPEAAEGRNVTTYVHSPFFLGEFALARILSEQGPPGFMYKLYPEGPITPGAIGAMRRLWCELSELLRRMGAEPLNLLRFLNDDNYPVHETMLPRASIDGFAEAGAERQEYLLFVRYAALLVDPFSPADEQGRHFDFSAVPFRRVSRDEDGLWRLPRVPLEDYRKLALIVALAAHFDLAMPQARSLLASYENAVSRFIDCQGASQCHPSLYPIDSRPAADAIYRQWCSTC

`NC(=O)C1=CN([C@@H]2O[C@H](COP(=O)(O)OP(=O)(O)OC[C@H]3O[C@@H](n4cnc5c(N)ncnc54)[C@H](OP(=O)(O)O)[C@@H]3O)[C@@H](O)[C@H]2O)C=CC1` [NADPH] was tested, and the Kd [1] was 11 ± 1 µM.

`C[S+](CC[C@H](N)C(=O)O)C[C@H]1O[C@@H](n2cnc3c(N)ncnc32)[C@H](O)[C@@H]1O` (stereo partly shown) [SAM] was tested, and the Kd [2] was 1.2 ± 0.3 µM.

Work on “SaNAS (Staphylococcus aureus subsp. aureus Mu50)” yielded a Km [3] of 13.0 ± 0.7 µM and a kcat [3] of 0.0298 ± 0.00033 s⁻¹.
